The record followed here is PubChem BioAssay (NCI).

Test systems include HOP-92 NSCLC; DU-145 prostate; NCI/ADR-RES ovarian; KM20L2 colon; HOP-18 NSCLC; DMS 114 small cell lung; SNB-78 CNS; RXF-631 renal; DMS 273 small cell lung; T-47D breast; LXFL 529 NSCLC; P388/ADR leukemia; XF 498 CNS; P388 leukemia; SN12K1 renal.
Common to all, as to experiment: NCI tumour cell line growth inhibition, 48 h

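In this assay, cells in 96-well plates receive the compound at five concentrations for 48 hours. Endpoints are linearly interpolated between the surrounding concentrations. GI50 is the concentration that inhibits growth by half. TGI is the concentration that stops growth completely.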

Consider `CCC1(CCSC(=N)N)C(=O)NC(=O)NC1=O`, for which the TGI in the test with HOP-92 NSCLC, in the test with DU-145 prostate and with NCI/ADR-RES ovarian was more than 100 µM each time.
On to `C=C1CC[C@@H](Br)C(C)(C)[C@]12CCC(C)(O)C(Cl)C2` (stereo not given in full), for which the TGI with HOP-92 NSCLC is 46.3 µM; in the test on KM20L2 colon it was 32.9 µM; with HOP-18 NSCLC, 59.1 µM; in the test on DMS 114 small cell lung, 31.8 µM; with SNB-78 CNS it was more than 100 µM; with RXF-631 renal it was 41.9 µM. Besides, in the test on DMS 273 small cell lung, the TGI is 36.2 µM.
As for `O=C(O)NCc1ccccc1` (tested in a mixture with another compound), the TGI was 67.2 µM in the test with HOP-92 NSCLC, more than 100 µM in the test on DU-145 prostate, more than 81.6 µM in the test with T-47D breast and more than 90 µM in the test with NCI/ADR-RES ovarian.
Regarding `CC(=O)OC/C=C/Cn1ncc(=O)[nH]c1=O`, the TGI in the test with HOP-92 NSCLC, in the test on DU-145 prostate, in the test with T-47D breast and in the test with NCI/ADR-RES ovarian was more than 100 µM each time.
`O=[As](O)(O)c1ccc(N=Nc2ccc([As](=O)(O)O)cc2)cc1`: the TGI in the test with HOP-92 NSCLC, in the test on DU-145 prostate, with T-47D breast and in the test with NCI/ADR-RES ovarian was more than 100 µM each time.
In the case of `Nc1nncc2c1ccn2C1OC(CO)C(O)C1O` (stereo not given), the TGI in the test on HOP-92 NSCLC, in the test with KM20L2 colon, with HOP-18 NSCLC, with DMS 114 small cell lung, in the test on SNB-78 CNS and with LXFL 529 NSCLC was more than 100 µM each time. Also, the TGI with DMS 273 small cell lung was more than 100 µM.
For the compound `O=C(O)CCSCc1ccc(I)cc1`, the TGI in the test with HOP-92 NSCLC, in the test on DU-145 prostate, with T-47D breast and in the test on NCI/ADR-RES ovarian was more than 100 µM throughout.
Consider `COc1cc(N/N=C/C#N)cc(OC)c1OC`, for which the TGI with DU-145 prostate, in the test with T-47D breast and with NCI/ADR-RES ovarian was more than 10 µM in each case.
As for `Cc1cc2c(cc1C)[n+](=O)c(C#N)c(Cl)n2[O-]`, the TGI is 30.3 µM in the test on HOP-92 NSCLC, 43.4 µM in the test on DU-145 prostate and 42.3 µM in the test with NCI/ADR-RES ovarian.
As to `O=C(CCl)NC(Cc1ccc(F)cc1)C(=O)O` (stereo not given), the TGI with HOP-92 NSCLC, in the test on KM20L2 colon, in the test on P388/ADR leukemia, in the test with HOP-18 NSCLC, in the test on DMS 114 small cell lung and in the test with SNB-78 CNS was more than 100 µM each time. Moreover, the TGI in the test on XF 498 CNS, with NCI/ADR-RES ovarian, with DMS 273 small cell lung, in the test on P388 leukemia and with SN12K1 renal was more than 100 µM each time.
For the compound `CCOC(=O)[C@H]1Nc2c(cccc2[N+](=O)[O-])[C@H]2OCC[C@@H]12`, the TGI in the test on KM20L2 colon, in the test with HOP-18 NSCLC, with DMS 114 small cell lung, in the test with SNB-78 CNS, in the test with XF 498 CNS and in the test on LXFL 529 NSCLC was more than 100 µM in each case. In addition, the TGI in the test with RXF-631 renal and in the test with DMS 273 small cell lung was more than 100 µM in each case.
Take `CC(C)OC(=O)C1=C(O)c2ccccc2S(=O)(=O)N1`: the TGI with KM20L2 colon, in the test with HOP-18 NSCLC, with SNB-78 CNS, with XF 498 CNS, with LXFL 529 NSCLC and in the test with RXF-631 renal was more than 100 µM in each case. Also, the TGI in the test with DMS 273 small cell lung was more than 100 µM.
For `Nc1c(-c2nc3ccccc3o2)sc(=S)n1-c1ccc(Cl)cc1`, the TGI stood at 63.3 µM with HOP-92 NSCLC, 32.9 µM in the test with DU-145 prostate, 33.1 µM in the test on T-47D breast and 74.1 µM in the test on NCI/ADR-RES ovarian.
In the case of `O=C(N/C(=C\c1cccc([N+](=O)[O-])c1)c1nc2[nH]c(=S)[nH]c(=O)c2[nH]1)c1ccccc1`, the TGI in the test with HOP-92 NSCLC, in the test with KM20L2 colon, in the test on HOP-18 NSCLC, with DMS 114 small cell lung, with SNB-78 CNS and in the test on XF 498 CNS was more than 100 µM each time. The TGI in the test with LXFL 529 NSCLC and in the test on RXF-631 renal was more than 100 µM throughout.
With `O=C(O)c1ccc([N+]2=Cn3c(nc4ccccc43)C2)cc1`, the TGI in the test on DU-145 prostate, with T-47D breast and in the test with NCI/ADR-RES ovarian was more than 100 µM throughout.
`O=C(O)c1cc2cc(c1)N=Cc1ccccc1OCc1cccc(n1)COc1ccccc1C=N2`: the TGI in the test on HOP-92 NSCLC was more than 25 µM; with DU-145 prostate it was more than 25 µM; with NCI/ADR-RES ovarian, 15.4 µM.
On to `CC[C@H](Nc1nc(N)nc(C)c1C#N)c1nc2cccc(NCc3ccc(C(=O)NO)cc3)c2c(=O)n1-c1ccccc1`, for which the GI50 is 1980 nM in the test on DU-145 prostate, 1180 nM with T-47D breast and 13.5 µM with NCI/ADR-RES ovarian. For the same compound, the TGI with DU-145 prostate was 6.53 µM; with T-47D breast it was 4.66 µM; in the test with NCI/ADR-RES ovarian it was more than 100 µM.
On to `O=C1Nc2ccccc2S/C1=C\c1ccccc1C(F)(F)F`, for which the TGI in the test with HOP-92 NSCLC, in the test with DU-145 prostate, in the test with T-47D breast and with NCI/ADR-RES ovarian was more than 100 µM throughout.
`CC(=O)O[C@H]1CC[C@@]2(C)C(=CC[C@@H]3[C@@H]2CC[C@]2(C)Nc4c(cnn4S(C)(=O)=O)C[C@@H]32)C1`: the TGI in the test with HOP-92 NSCLC, with DU-145 prostate, in the test with T-47D breast and in the test on NCI/ADR-RES ovarian was more than 100 µM each time.
As for `Cc1ccc([N+](=O)[O-])cc1NC(=O)C(=O)C(C(=O)c1ccccc1F)C1OC(=O)c2ccccc21` (stereo not given), the TGI in the test with HOP-92 NSCLC was more than 100 µM; in the test on KM20L2 colon it was more than 100 µM; with DMS 114 small cell lung, 61.2 µM; with SNB-78 CNS, more than 100 µM; with XF 498 CNS, more than 100 µM; in the test with LXFL 529 NSCLC, more than 100 µM. The TGI in the test with RXF-631 renal and in the test with DMS 273 small cell lung was more than 100 µM each time.
Turning to `N=c1nc2n(cc1F)[C@@H]1O[C@H](CO)[C@@H](O)[C@@H]1O2`, the TGI in the test on HOP-92 NSCLC was more than 65.1 µM; with KM20L2 colon it was more than 100 µM; in the test on DU-145 prostate, more than 100 µM; with T-47D breast, 65.2 µM; in the test on HOP-18 NSCLC, more than 100 µM; with SNB-78 CNS, more than 100 µM. The TGI in the test with XF 498 CNS, in the test on NCI/ADR-RES ovarian, with LXFL 529 NSCLC and in the test on DMS 273 small cell lung was more than 100 µM in each case.
As for `NC(=S)Nc1cc(Cl)ccc1Cl`, the TGI with HOP-92 NSCLC, with KM20L2 colon, in the test on HOP-18 NSCLC, with DMS 114 small cell lung, in the test on SNB-78 CNS and in the test on XF 498 CNS was more than 100 µM in each case. The TGI in the test on LXFL 529 NSCLC, in the test with RXF-631 renal and in the test with DMS 273 small cell lung was more than 100 µM in each case.
With `CCOC(=O)Nc1cc2c(c(N)n1)N=C(c1ccccc1)[C@H](C)N2`, the TGI is 47.1 µM in the test with HOP-92 NSCLC; less than 0.0001 µM in the test with KM20L2 colon; more than 100 µM with HOP-18 NSCLC; less than 0.0001 µM in the test with DMS 114 small cell lung; less than 0.0001 µM in the test on XF 498 CNS; more than 100 µM in the test on LXFL 529 NSCLC. Also, the GI50 with HOP-18 NSCLC was 29.1 µM.
For `Oc1ccc2oc3c(O)c4ccccc4cc3c2c1`, the TGI in the test with HOP-92 NSCLC stood at 41.6 µM; in the test on DU-145 prostate, 15.6 µM; with T-47D breast it was 55.4 µM; with NCI/ADR-RES ovarian, 9.74 µM.
In the case of `O=[N+]([O-])c1ccc2c(c1)Nc1c3ccccc3nc3cccc-2c13`, the TGI in the test on HOP-92 NSCLC came out at 18.8 µM; in the test with DU-145 prostate it was 9.43 µM; in the test on T-47D breast, 43.2 µM; in the test on NCI/ADR-RES ovarian, 17.1 µM.
With `Cc1ccc(C[P+]2(c3ccccc3)CCCCC2)cc1`, the TGI is more than 100 µM in the test on KM20L2 colon; 64.1 µM with DMS 114 small cell lung; 92.4 µM with SNB-78 CNS; 0.537 µM with XF 498 CNS; 85.6 µM in the test on LXFL 529 NSCLC; more than 100 µM in the test on DMS 273 small cell lung.
As to `Oc1c2c(c3c4c1N=CC=4CCN=3)-c1c(Br)cc(Br)cc1CCN2`, the TGI in the test with HOP-92 NSCLC was determined as 26.7 µM; in the test on KM20L2 colon, 8.2 µM; in the test with P388/ADR leukemia, 5.83 µM; in the test with HOP-18 NSCLC, 7.91 µM; in the test on DMS 114 small cell lung it was 7.12 µM; in the test with SNB-78 CNS, 29.2 µM. Also, the TGI was more than 38.5 µM in the test with XF 498 CNS, 12.5 µM with NCI/ADR-RES ovarian, 11.8 µM with DMS 273 small cell lung and 15.4 µM in the test on SN12K1 renal.
